Data: paper PMC5633609, “Novel Peripherally Restricted Cannabinoid 1 Receptor Selective Antagonist TXX-522 with Prominent Weight-Loss Efficacy in Diet Induced Obese Mice” (Frontiers in Pharmacology, 2017)
Read-outs that look alike come from different tables or passages of the source.

Columns and labels:
[1] = Steady state brain to plasma distribution after intravenous administration; type: in vivo, Sprague-Dawley rats; conditions: rat; for fraction of compound in the brain tissue: intravenous, steady state
Experimental: The compounds (2.5 mg/kg) were dissolved in 5% glucose solution containing polyoxyethylene castor oil (2.17%), 1,2-propanediol (0.56%), ethanol (0.75%), and medium chain triglycerides (0.48%) prior to intravenous administration to the Sprague-Dawley rats (n = 3), with an initial push of 0.3 mL at a speed of 75 mL/h, followed by 2.5 mL/h for 40 min. Retro-orbital blood samples (∼250 μL) were collected at defined time-points (0, 10, 15, 20, 25, 30, 35, and 40 min after dosing). The rats were then euthanized by decapitation, the brain and plasma samples were collected, and then stored at -80°C for subsequent assay. The plasma samples and whole rat brain, which had been homogenized with five volumes (v/w) of physiological saline on ice, were extracted by protein precipitation and analyzed using liquid chromatography-mass spectrometry/mass spectrometry, as previously reported ([Fulp et al., 2012]). The steady state Kp-value for each test compound was calculated and used as an index of brain penetration.

C57BL/6 mice [2] = test: WIN 55,212-2-induced hypothermia / body temperature; type: in vivo, C57BL/6J mice; conditions: for effect on WIN 55,212-2-induced hypothermia: oral, 1 h before WIN 55,212-2 3 mg/kg i.p., SR141716A 10 mg/kg, TXX-522 20 or 60 mg/kg, 30 min after WIN; for effect of compound alone on body temperature: TXX-522 alone, data not shown, WIN 55,212-2 3 mg/kg i.p.
Experimental: After a 7-day acclimation, body weight-matched male C57BL/6J mice (8-week-old) were randomly sorted into four different groups (n = 5 mice/group). […] The rectal temperature was monitored using a rectal probe coupled to a digital thermometer before and 30 min after treatment with WIN 55,212-2.

C57BL/6 mice [3] = test: Acute food intake (appetite) in fasted mice; type: in vivo; conditions: fasted C57BL/6 mice, oral; TXX-522 20 and 60 mg/kg, SR141716A 10 mg/kg; 3 h intake
Experimental: Mice (8-week-old) were maintained singly for 7 days with ad libitum access to a standard diet before testing. […] At 30 min post treatment, the mice were allowed access to rodent chow, and their food intake was measured for the subsequent 3 h.

DIO C57BL/6 mice = test: Anti-obesity study in DIO C57BL/6 mice; type: in vivo; conditions: for effect on food intake of DIO mice: 1st week of administration; for effect on fasting blood glucose and insulin levels: overnight-fasted; for effect on serum triglyceride and total cholesterol: end of treatment, SR141716A 5 mg/kg, TXX-522 10 mg/kg; for onset of statistically significant body weight difference / effect on body weight of DIO mice: oral gavage daily 4 weeks; for effect on body weight of DIO mice: SR141716A 5 mg/kg/day
Experimental: Male C57BL/6J mice (6-week-old) were maintained on a 12-h light/dark cycle at a controlled temperature (22 ± 1°C) and were fed a high-fat diet (45% fat, 18% protein, and 37% carbohydrate) for 20 weeks to establish the DIO mouse model ([Chen et al., 2010], [2011]). Age-matched standard diet-fed lean mice were used as the normal control group. […] Individual body weights and cage food consumption were measured daily. Oral glucose tolerance testing was performed on treatment day 23 on overnight-fasted mice while the serum glucose and insulin levels were assayed as described previously ([Chen et al., 2013]). At the end of the treatment period, the mice were fasted overnight prior to collecting blood samples for the analysis of serum triglycerides and total cholesterol levels as described previously ([Xie et al., 2015]). Furthermore, the intra-abdominal white adipose tissues (epididymal, lumbar, and perirenal) were removed and weighed.

human CB2R [4] = biological target: T1, human CB2R (Homo sapiens, UniProt P34972); test: Intracellular cAMP assay in CHO-hCB2 cells; type: cell-based; parameters: host or cells: CHO (CHO-hCB2R); conditions: even at 10 μmol/L
Experimental: (§1) The functional antagonism of the response to a CB1R agonist was previously detected in the CHO-hCB1R and CHO-hCB2R cell lines ([Chen et al., 2010], [2011]). Intracellular cAMP was analyzed in these cells using the LANCE cAMP 384 kit (AD0262, PerkinElmer, San Jose, CA, United States) following exposure to the vehicle or different concentrations of the test compounds (individually or combined) in the presence of a phosphodiesterase inhibitor (2.5 μmol/L 3-isobutyl-1-methylxanthine) for 30 min. The cAMP level detected in the vehicle-treated cells was set as 1, and the levels detected in the treated cells were expressed as fold changes compared to the control level.

[5] = parameters: method as in earlier work; conditions: ref Chorvat et al., 2012, Klumpers et al., 2013, Knani et al., 2016, Lu et al.; cited from earlier work
DIO mice and rats = system: DIO mice and rats; parameters: method as in Alonso et al., 2012; Silvestri and Di Marzo, 2012; conditions: ref Alonso et al., 2012, Silvestri and Di Marzo; cited from earlier work
human CB1R [6] = biological target: T2, human CB1R (Homo sapiens, UniProt P21554); type: cell-based
Excerpt: (§2) Commercial enhanced green fluorescent protein (EGFP)-CB1/CB2_U2OS cells specifically designed to screen CB1R/CB2R agonists or antagonists (Thermo Fisher Bioimage ApS, Soeborg, Denmark) were used to examine the antagonist activity and selectivity of TXX-522 for these CBR subtypes. […] Based on a previously described method ([Chen et al., 2011]), the regular EGFP-CB1/CB2_U2OS cell culture medium was replaced with F12 culture medium containing 1 μmol/L Hoechst 33342 (Invitrogen, OR, United States) before each experiment, and incubated for 20 min at 37°C. […] Dimethyl sulfoxide (DMSO, 0.1%) was used as the vehicle control. After further incubation for 2 h at 37°C, images of the cells were acquired using the IN Cell Analyzer 2000 (GE Healthcare, NJ, United States; 20× objective) and analyzed using the Granularity Analysis Module of the IN Cell. The inhibition ratio of each tested compound was expressed as percentage inhibition of the internalization induced by the reference CB1R/CB2R agonist, WIN 55,212-2. […] The results were obtained from three independent experiments each performed in triplicate.

human CB2R [7] = biological target: T1, human CB2R; test: Receptor internalization (redistribution) assay in EGFP-CB2_U2OS cells; type: cell-based; conditions: read-out: IC50 CB2R, antagonism of WIN 55,212-2-induced internalization
Excerpt: as §2

rat hippocampal neurons = test: Fluoro-3 AM Ca2+ imaging in hippocampal neurons; type: cell-based; conditions: 10 nmol/L to 10 μmol/L; WIN 55,212-2 1 μmol/L; concentration-dependent
Experimental: Hippocampal neurons were prepared from neonatal rats as described previously and intracellular Ca^2+ levels ([Ca^2+]i) were investigated ([Chen et al., 2010]). […] WIN 55,212-2 (1 μmol/L) was added 1 min later. The fluorescence was monitored and imaged using the IN Cell Analyzer 1000 and analyzed using the Object Intensity Analysis Module of IN Cell. The [Ca^2+]i time courses were monitored by recording the relative fluorescence intensity per cell vs. time.

DIO Kunming mice = test: Preliminary screening test in DIO Kunming mice; type: in vivo; conditions: 3-week treatment, 20 mg/kg, data not shown
Excerpt: Finally, we further evaluated the in vivo pharmacodynamic effects of TXX-522 in a commonly used mouse model of obesity.

human CB1R [8] = biological target: T2, human CB1R; type: binding; parameters: host or cells: CHO (CHO-hCB1R)
Experimental: (§3) The affinities of TXX-522 for the human CB1R and CB2R receptor were analyzed using Cerep cooperation (Celle l’Evescault, France) using stably transfected CHO cells (CHO-hCB1R and CHO-hCB2R, respectively) and a previously reported competitive binding assay ([Munro et al., 1993]; [Chen et al., 2011]). Non-specific binding was determined in the presence of 10 μmol/L non-radioactive WIN 55,212-2. […] Each competitive binding inhibition curve was generated using data pooled from three independent experiments each conducted in duplicate.

human CB2R [9] = biological target: T1, human CB2R; test: Competitive radioligand binding assay, CHO-hCB2R; parameters: host or cells: CHO (CHO-hCB2R); conditions: CHO-hCB2R cells; read-out: IC50, CB2 receptor competitive binding
Experimental: as §3

human CB1R [10] = biological target: T2, human CB1R; test: Intracellular cAMP assay in CHO-hCB1 cells; type: cell-based; parameters: host or cells: CHO (CHO-hCB1R)
Experimental: as §1

[11] = 2.5 mg/kg intravenous infusion, 40 min

T2 sequence (P21554 whole entry): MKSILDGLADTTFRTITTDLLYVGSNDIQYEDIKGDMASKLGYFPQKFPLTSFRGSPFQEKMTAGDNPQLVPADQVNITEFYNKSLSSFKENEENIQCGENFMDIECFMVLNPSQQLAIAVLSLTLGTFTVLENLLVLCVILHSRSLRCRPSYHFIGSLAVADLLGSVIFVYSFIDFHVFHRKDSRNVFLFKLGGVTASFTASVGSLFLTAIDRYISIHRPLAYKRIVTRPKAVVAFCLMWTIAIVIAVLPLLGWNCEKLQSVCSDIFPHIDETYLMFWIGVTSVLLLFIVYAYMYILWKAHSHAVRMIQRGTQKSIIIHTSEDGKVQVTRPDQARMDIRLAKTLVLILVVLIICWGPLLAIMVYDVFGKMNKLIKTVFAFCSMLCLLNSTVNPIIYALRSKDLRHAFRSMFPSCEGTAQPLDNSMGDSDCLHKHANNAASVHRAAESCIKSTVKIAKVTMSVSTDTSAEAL
T1 sequence (P34972 whole entry): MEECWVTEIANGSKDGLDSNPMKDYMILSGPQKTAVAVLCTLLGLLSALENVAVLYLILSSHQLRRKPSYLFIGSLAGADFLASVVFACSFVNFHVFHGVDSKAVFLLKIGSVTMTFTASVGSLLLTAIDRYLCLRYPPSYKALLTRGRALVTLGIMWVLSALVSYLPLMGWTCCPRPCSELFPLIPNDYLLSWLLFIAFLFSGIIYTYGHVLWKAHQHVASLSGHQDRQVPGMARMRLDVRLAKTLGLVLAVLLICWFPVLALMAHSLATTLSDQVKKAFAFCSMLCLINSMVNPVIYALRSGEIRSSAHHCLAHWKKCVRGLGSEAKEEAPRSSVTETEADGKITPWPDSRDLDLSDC

Molecule | fraction of compound in the brain tissue [1] [%] | effect on WIN 55,212-2-induced hypothermia (C57BL/6 mice [2]) | effect on acute food intake (C57BL/6 mice [3]) | effect on food intake of DIO mice (DIO C57BL/6 mice) | effect on fasting blood glucose and insulin levels (DIO C57BL/6 mice; DIO mice) | effect on serum triglyceride and total cholesterol (DIO C57BL/6 mice) | onset of statistically significant body weight difference (DIO C57BL/6 mice) | effect on body weight of DIO mice (DIO C57BL/6 mice; TXX-522 5 or 10 mg/kg/day) | effect on intracellular cAMP level in CHO-hCB2 cells (human CB2R [4]) | effect of compound alone on body temperature (C57BL/6 mice [2]) | anorexia in DIO mice and rats (DIO mice and rats) | also measured
Cc1c(C(=O)NN2CCCCC2)nn(-c2ccc(Cl)cc2Cl)c1-c1ccc(Cl)cc1 [SR141716A, reference compound] | > 60 | reversed | significantly inhibited food intake | reduced food intake | dramatically decreased | notably reduced hypertriglyceridemia | from day 4 onward | significant reduction | neither TXX-522 nor SR141716A affected |  |  | Kp at 40 min ([1]; Sprague-Dawley, brain and plasma, 2.5 mg/kg intravenous infusion, read-out: Kp (brain to plasma distribution ratio, steady state)): 1.67
Cc1c(C(=O)c2cccc3ccccc23)c2cccc3c2n1[C@H](CN1CCOCC1)CO3 [WIN 55,212-2, reference compound] |  |  |  |  |  |  |  |  |  | notably decreased the body temperature |  | 
CC(C)[C@H](N=C(NS(=O)(=O)c1ccc(Cl)cc1)N1C[C@H](c2ccccc2)C(c2ccc(Cl)cc2)=N1)C(N)=O [JD-5037] |  |  |  |  |  |  |  |  |  |  | induced anorexia | brain to plasma distribution ratio (Kp) [5]: < 1
(5-(4-chlorophenyl)-1-(2, 4-dichlorophenyl)-4-methyl-1H-pyrazol-3-yl) (piperidin-1-yl) methanone [TXX-522] | 2 | did not block | did not affect acute food consumption | no anorexia | dramatically decreased | lowered both serum triglyceride and total cholesterol levels | from 2 weeks | dose-dependently decreased | neither TXX-522 nor SR141716A affected | did not affect the body temperature |  | IC50 (human CB1R [6]; EGFP-CB1_U2OS cells, WIN 55,212-2 1 μmol/L, read-out: IC50 CB1R, antagonism of WIN 55,212-2-induced internalization): 10.3 ± 6.08 nM; CB2R/CB1R selectivity (internalization IC50 ratio) (human CB1R [6]; EGFP-CB1_U2OS vs EGFP-CB2_U2OS cells): >968; IC50 (human CB2R [7]): > 10000 nM; Kp (brain to plasma distribution ratio, steady state) ([1]; 2.5 mg/kg intravenous infusion): 0.02; steady state concentration in brain [1, 11]: 528.9 ± 1.6 ng/mL; steady state concentration in plasma [1, 11]: 23323.0 ± 267.8 ng/mL; effect on elevation and oscillation of [Ca2+]i elicited by WIN 55,212-2 (rat hippocampal neurons): blocked; effect on insulin resistance and hyperinsulinemia (DIO C57BL/6 mice; 5 mg/kg): ameliorated the insulin resistance and hyperinsulinemia more than the same dose of SR141716A did; adverse effects / apparent signs of toxicity (DIO C57BL/6 mice; DIO mice, 4 weeks, TXX-522 5 or 10 mg/kg/day): no adverse effects; weight loss and abdominal fat decrease by the end of the study (DIO C57BL/6 mice; chronic treatment, 5 and 10 mg/kg, compared with SR141716A): comparable efficacy to that of SR141716A; oral glucose tolerance testing (DIO C57BL/6 mice; treatment day 23, 5 mg/kg): ameliorated glucose intolerance more than the same dose of SR141716A did; effect on body weight and fat mass (DIO Kunming mice): significantly reduced body weight and fat mass; IC50 (human CB1R [8]; CHO-hCB1R cells, radioligand [3H]-CP 55,940 or [3H]-SR141716A, read-out: IC50, CB1R competitive binding): 170 nM; Ki (human CB1R [8]; CHO-hCB1R cells, radioligand [3H]-CP 55,940 or [3H]-SR141716A, read-out: Ki, CB1R competitive binding): 150 nM; selectivity ratio (CB1R over CB2R, binding) (human CB1R [8]; from radioligand binding values): 176; IC50 (human CB2R [9]): > 30000 nM; reversal of WIN 55,212-2-induced inhibition of forskolin-stimulated cAMP accumulation (human CB1R [10]; WIN 1 μmol/L, forskolin 0.1 μmol/L): dose-dependently reversed; maximum effect on cAMP (human CB1R [10]; at 10 μmol/L with forskolin plus WIN): equivalent to that induced by forskolin alone; effect of compound alone on forskolin-induced cAMP level (inverse agonism) (human CB1R [10]; up to 10 μmol/L, data not shown): no further increase
CCCCCCc1nc(-c2ccc(Cl)cc2)n(-c2ccc(Cl)cc2Cl)n1 [LH-21] |  |  |  |  |  |  |  |  |  |  | induced anorexia | 
